Reference: patent US5276217A, “Cyclic anti-tumor promoter compounds, compositions and methods for production and use” (University of Hawaii, priority 1992, dated 1994)
pIC50: −log10 of the molar value. Like-named read-outs stand apart in the source and are kept apart here.

Columns and labels:
[1] = tested on: tumor promotion; conditions: prior art, in words, cited from earlier work
[2] = target: T1, ras farnesyl transferase (Bos taurus, UniProt P29702+P49355); assay: inhibition of the farnesylation of ras-p21 by ras farnesyl transferase (3H-farnesylpyrophosphate incorporation); assay type: biochemical, bovine
T1 construct: ras farnesyl transferase obtained from bovine brain; from tissue; host or cells: bovine brain
Protocol: This inhibitory activity is assayed using partially purified ras farnesyl transferase obtained from bovine brain by DEA gel filtration (J. Biol. Chem., 260, 15575, 1991) purified to display a single band in gel electrophoresis. […] This mixture is incubated at 37° C. for 20 minutes. The solutes are then precipitated with trichloroacetic acid (TCA) and the precipitate is filtered on a glass filter. The amount of farnesyl incorporated into the ras-p21 is then determined by liquid scintillation.

Row | pIC50 ([2]; 37° C., 20 minutes, pH 7.5, 0.67 μM 3H-Farnesylpyrophosphate, 4 μg ras-p21) | Compound | anti-tumor promoter activity [1] | inhibition of the farnesylation of ras-p21, in words ([2]; conclusion from Example 7) | anti-tumor promoter activity ([1]; listed as sarcophytol A)
1 | – | CCCCC[C@H](O)CC(=O)CCc1ccc(O)c(OC)c1 [Gingerol, (S)-5-Hydroxy-1-(4-hydroxy-3-methoxyphenyl)-3-decanone] | reported to be an inhibitor of tumor promotion | – | –
2 | – | C=C(C)C1CC=C(C)CC1 (stereo not shown) [Limonene, 1-methyl-4-(methylethenyl) cylcohexene] | has not been shown to have substantial anti-tumor promoter activity | – | –
3 | < 3.00 | CC1=CC=C(C(C)C)C(O)CC(C)=CCCC(C)=CCC1 (stereo not shown) [Sarcophytol A] | have been shown to have anti-tumor promoter activity | does not appear to be an effective inhibitor | displays antitumor promoting properties
4 | – | C/C1=C\C=C(\C(C)C)[C@@H](O)[C@H](O)/C(C)=C/CC/C(C)=C/CC1 [Sarcophytol B] | have been shown to have anti-tumor promoter activity | – | –
